Measured values: US6664231B1, “Anti-fungal peptides” (priority 1993, dated 2003)
“And” between values parts separate entries of the source, which are not always exact repeats. Equal entries are not always repeated. Where two headings read alike, the source gives them in different places. Square brackets hold non-standard residues; d marks the D form. Ends that are not written are not given here. Peptide text beside a SMILES is read from it. 1Nal = N[C@@H](Cc1cccc2ccccc12)C(=O)O; pGlu = O=C1CC[C@@H](C(=O)O)N1; 12Ado = NCCCCCCCCCCCC(=O)O; Aoc = NCCCCCCCC(=O)O

Assays:
[1] = tested on: mouse RAW 264.7 cells incubated with E. coli O113 LPS; conditions: RAW 264.7 cells with E. coli O113 LPS; concentration reversing LPS growth inhibition by 50%
Description: (§1) An in vitro LPS neutralization screening assay for evaluation of Domain III derived peptides was developed (as described in co-owned and co-pending U.S. patent application Ser. No. 08/306,473) which provides both a measure of efficacy of each peptide (EC50) and of the toxicity/growth inhibition of each peptide (IC50).
(§2) The cells were counted and their concentration adjusted to 2×10^5 cells/mL and 100 μL aliquots were added to each well of a 96-well microtitre plate. […] This incubation was performed in the absence or presence of peptides in varying concentrations between 25 ng/mL and 50 μg/mL. […] Cell proliferation was quantitatively measured by the addition of 1 μCi/well [^3H]-thymidine 5 hours after the time of initiation of the assay. After the 15-hour incubation, labeled cells were harvested onto glass fiber filters with a cell harvester (Inotech Biosystems, INB-384, Sample Processing and Filter Counting System, Lansing, Mich.).

[2] = tested on: mouse RAW 264.7 cells
Description: as §1, §2

[3] = tested on: C. albicans (CA-1, Strain SLU-1); assay: Radial diffusion assay; assay type: cell-based, Candida albicans; conditions: for C. albicans pmol/30 mm^2 zone: pmoles of peptide added to well to achieve a 30 mm^2 zone, PROBIT analysis, crude or purified (P′) peptide
Procedure, shortened: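 Peptides, serially diluted 2-fold in D-PBS (top ~1 mg/mL), diffused 3 h at 37° C into pH 7.4 phosphate-buffered agarose seeded with 1×10^6 CFU/mL yeast, before overnight growth under a 6% Sabouraud overlayer. Net inhibition zones measured after Coomassie staining; PROBIT fit of log pmol vs area gave pmol for 30 mm^2.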

[4] = RAW 264.7 cell growth inhibited by 50%

KKWAIQLKK-NH2 (C-terminus assumed) [XMP.344P]
In Vitro LPS Neutralization EC50 [1]: >25 µg/mL
IC50 (toxicity/growth inhibition of peptide) [2, 4]: NA (NA for IC50 means no evidence of decreased RAW cell growth at up to 50 μg/ml)

H-KKLQLLLKK-NH2 [XMP.381P]
In Vitro LPS Neutralization EC50 [1]: NA (NA for EC50 means no evidence neutralization of LPS at up to 50 μg/ml)
IC50 (toxicity/growth inhibition of peptide) [2, 4]: NA (NA for IC50 means no evidence of decreased RAW cell growth at up to 50 μg/ml)

CC[C@@H](C)[C@@H](NC(=O)[C@@H](CC(C)C)NC(=O)[C@@H](Cc1c[nH]c2ccccc12)NC(=O)[C@@H](CCCCN)NC(=O)CCCCCCCCCCCN)C(=O)N[C@H](CCC(N)=O)C(=O)N[C@H](CC(C)C)C(=O)N[C@H](Cc1ccccc1)C(=O)N[C@H](Cc1c[nH]cn1)C(=O)N[C@H](CCCCN)C(=O)N[C@H](CCCCN)C(N)=O [XMP.417] (H-[12Ado][dK][dW][dL][dI][dQ][dL][dF][dH][dK][dK]-NH2; C-terminus assumed)
In Vitro LPS Neutralization EC50 [1]: 3.88 ± 0.20 µg/mL
IC50 (toxicity/growth inhibition of peptide) [2]: 11.26 ± 1.30 µg/mL

CC[C@@H](C)[C@@H](NC(=O)[C@@H](CCC(N)=O)NC(=O)[C@@H](CC(C)C)NC(=O)[C@@H](Cc1ccccc1)NC(=O)[C@@H](Cc1c[nH]cn1)NC(=O)[C@@H](CCCCN)NC(=O)[C@@H](CCCCN)NC(C)=O)C(=O)N[C@H](CC(C)C)C(=O)N[C@H](Cc1c[nH]c2ccccc12)C(=O)N[C@H](CCCCN)C(N)=O [XMP.368P]
In Vitro LPS Neutralization EC50 [1]: 1.95 ± 0.11 µg/mL
IC50 (toxicity/growth inhibition of peptide) [2]: >25 µg/mL

H-KKLLLQLKK-NH2 [XMP.383P]
In Vitro LPS Neutralization EC50 [1]: NA (NA for EC50 means no evidence neutralization of LPS at up to 50 μg/ml)
IC50 (toxicity/growth inhibition of peptide) [2, 4]: NA (NA for IC50 means no evidence of decreased RAW cell growth at up to 50 μg/ml)

H-KKWLIQLFHKK-NH2 [XMP.352P]
In Vitro LPS Neutralization EC50 [1]: 2.34 ± 0.38 µg/mL
IC50 (toxicity/growth inhibition of peptide) [2, 4]: NA (NA for IC50 means no evidence of decreased RAW cell growth at up to 50 μg/ml)

KKPWAIQLKK-NH2 (C-terminus assumed) [XMP.379P]
In Vitro LPS Neutralization EC50 [1]: NA (NA for EC50 means no evidence neutralization of LPS at up to 50 μg/ml)
IC50 (toxicity/growth inhibition of peptide) [2, 4]: NA (NA for IC50 means no evidence of decreased RAW cell growth at up to 50 μg/ml)

CC[C@H](C)[C@H](NC(=O)[C@H](CC(C)C)NC(=O)[C@H](Cc1c[nH]c2ccccc12)NC(=O)[C@H](CCCCN)NC(=O)[C@@H]1CCCN1)C(=O)N[C@@H](CCC(N)=O)C(=O)N[C@@H](CC(C)C)C(=O)N[C@@H](CCCCN)C(=O)N[C@@H](CCCCN)C(N)=O [XMP.335P]
In Vitro LPS Neutralization EC50 [1]: NA (NA for EC50 means no evidence neutralization of LPS at up to 50 μg/ml)
IC50 (toxicity/growth inhibition of peptide) [2, 4]: NA (NA for IC50 means no evidence of decreased RAW cell growth at up to 50 μg/ml)

H-KKQLLLLKK-NH2 [XMP.380P]
In Vitro LPS Neutralization EC50 [1]: NA (NA for EC50 means no evidence neutralization of LPS at up to 50 μg/ml)
IC50 (toxicity/growth inhibition of peptide) [2, 4]: NA (NA for IC50 means no evidence of decreased RAW cell growth at up to 50 μg/ml)

H-KKLLLLLKK-NH2 [XMP.385P]
In Vitro LPS Neutralization EC50 [1]: 2.56 ± 0.23 µg/mL
IC50 (toxicity/growth inhibition of peptide) [2]: >25 µg/mL

CC[C@@H](C)[C@@H](NC(=O)[C@@H](CCC(N)=O)NC(=O)[C@@H](CC(C)C)NC(=O)[C@@H](CCCCN)NC(=O)[C@H](N)CCCCN)C(=O)N[C@H](C)C(=O)N[C@H](Cc1c[nH]c2ccccc12)C(=O)N[C@H](CCCCN)C(=O)N[C@H](CCCCN)C(N)=O [XMP.376P] (H-[dK][dK][dL][dQ][dI][dA][dW][dK][dK]-NH2)
In Vitro LPS Neutralization EC50 [1]: >50 µg/mL
IC50 (toxicity/growth inhibition of peptide) [2, 4]: NA (NA for IC50 means no evidence of decreased RAW cell growth at up to 50 μg/ml)

H-HHWLIQLHH-NH2 [XMP 337P]
In Vitro LPS Neutralization EC50 [1]: >50 µg/mL
IC50 (toxicity/growth inhibition of peptide) [2, 4]: NA (NA for IC50 means no evidence of decreased RAW cell growth at up to 50 μg/ml)

CC[C@@H](C)[C@@H](NC(=O)[C@@H](CC(C)C)NC(=O)[C@@H](Cc1c[nH]c2ccccc12)NC(=O)[C@@H](CCCCN)NC(=O)CCCCCCCN)C(=O)N[C@H](CCC(N)=O)C(=O)N[C@H](CC(C)C)C(=O)N[C@H](Cc1ccccc1)C(=O)N[C@H](Cc1c[nH]cn1)C(=O)N[C@H](CCCCN)C(=O)N[C@H](CCCCN)C(N)=O [XMP.416] (H-[Aoc][dK][dW][dL][dI][dQ][dL][dF][dH][dK][dK]-NH2)
In Vitro LPS Neutralization EC50 [1]: 4.67 ± 0.27 µg/mL
IC50 (toxicity/growth inhibition of peptide) [2, 4]: 24.41 ± 0.78 µg/mL

CC[C@H](C)[C@H](NC(=O)[C@H](CC(C)C)NC(=O)[C@H](Cc1c[nH]c2ccccc12)NC(=O)[C@H](CCCCN)NC(=O)[C@H]1CCCN1)C(=O)N[C@@H](CCC(N)=O)C(=O)N[C@@H](CC(C)C)C(=O)N[C@@H](CCCCN)C(=O)N[C@@H](CCCCN)C(N)=O [XMP.334P]
In Vitro LPS Neutralization EC50 [1]: NA (NA for EC50 means no evidence neutralization of LPS at up to 50 μg/ml)
IC50 (toxicity/growth inhibition of peptide) [2, 4]: NA (NA for IC50 means no evidence of decreased RAW cell growth at up to 50 μg/ml)

XMP.341P ([pGlu][pGlu]WLIQL[pGlu][pGlu]; not fully specified)
In Vitro LPS Neutralization EC50 [1]: >50 µg⁻¹ mL⁻¹
IC50 (toxicity/growth inhibition of peptide) [2, 4]: NA/NA (NA for IC50 means no evidence of decreased RAW cell growth at up to 50 μg/ml)

H-SKVKWLIQLFHKK-NH2 [XMP.284P]
In Vitro LPS Neutralization EC50 [1]: 4.72 ± 0.08/ μg/ml and 3.57 ± 0.09 μg/ml

CC[C@H](C)[C@H](NC(=O)[C@H](CC(C)C)NC(=O)[C@H](NC(=O)CNC(=O)[C@@H](NC(=O)[C@H](CCCCN)NC(=O)[C@H](CO)NC(=O)[C@@H](N)CCCCN)C(C)C)C(C)C)C(=O)N[C@@H](CCC(N)=O)C(=O)N[C@@H](CC(C)C)C(=O)N[C@@H](Cc1ccccc1)C(=O)N[C@@H](Cc1c[nH]cn1)C(=O)N[C@@H](CCCCN)C(=O)N[C@@H](CCCCN)C(N)=O [XMP.253] (H-KSKVG[dV]LIQLFHKK-NH2)
C. albicans pmol/30 mm^2 zone [3]: 1,108 pmol/30 mm^2 zone

H-KVKWLI-NH2 [XMP.313]
C. albicans pmol/30 mm^2 zone [3]: >11,050 pmol/30 mm^2 zone

H-KSKVKWLIQLWHKK-NH2 [XMP.124]
C. albicans pmol/30 mm^2 zone [3]: 351 pmol/30 mm^2 zone

CC[C@H](C)[C@H](NC(=O)[C@H](CC(C)C)NC(=O)[C@H](Cc1c[nH]c2ccccc12)NC(=O)CNC(=O)[C@@H](NC(=O)[C@H](CCCCN)NC(=O)[C@H](CO)NC(=O)[C@@H](N)CCCCN)C(C)C)C(=O)N[C@@H](CCC(N)=O)C(=O)N[C@@H](Cc1cccc2ccccc12)C(=O)N[C@@H](Cc1c[nH]c2ccccc12)C(=O)N[C@@H](Cc1c[nH]cn1)C(=O)N[C@@H](CCCCN)C(=O)N[C@@H](CCCCN)C(N)=O [XMP.237] (H-KSKVGWLIQ[1Nal]WHKK-NH2)
C. albicans pmol/30 mm^2 zone [3]: >2,777 pmol/30 mm^2 zone

H-KSKVGWLIDLFHKK-NH2 [XMP.264]
C. albicans pmol/30 mm^2 zone [3]: 879 pmol/30 mm^2 zone

XMP.137: C-148-161-C (SEQ ID NO:56) (CKSKVGWLIQLFHKKC)
C. albicans pmol/30 mm^2 zone [3]: >2286 pmol/30 mm^2 zone

H-SKVKWLIQLFH-NH2 [Peptide 287]
Plate Assay (nmol), crude peptide activity ([3]; crude peptide, nanomoles required to achieve a net 30 mm^2 zone (log titration curve)): >3.509 nmol

H-SVHVHISKSKVGWLIQLFHKKIESALRNK-NH2 [XMP.12]
C. albicans pmol/30 mm^2 zone [3]: >2099 pmol/30 mm^2 zone
